One assay concerns K-562. In words: NCI60 screen (SRB), Leukemia. The format is cell-based. As to conditions: Homo sapiens, K562; NCI60 Leukemia cell line K-562; read-out: GI50.
The subject of a further assay is OVCAR-3. In words: NCI60 screen (SRB), Ovarian cancer. The format is cell-based. As to conditions: Homo sapiens; NCI60 Ovarian cancer cell line OVCAR-3; read-out: GI50.
A further assay concerns HCT-15. Put plainly: NCI60 screen (SRB), Colon Cancer. The format is cell-based. As to conditions: Homo sapiens; NCI60 Colon Cancer cell line HCT-15; read-out: GI50.
In assay [1] the test system is human MCF-7 breast cancer cells. Put plainly: Cell viability (Alamar Blue) antiproliferative assay in MCF-7 cells. The format is cell-based. As to conditions: Homo sapiens, MCF7, 72 h, human MCF-7 breast cancer cells; 72 h; mean ± SEM; read-out: Antiproliferative Activity IC50.
The subject of a further assay is NCI 60 cell line panel. In words: NCI60 cell line screen (SRB assay), whole panel or sub-panels. The format is cell-based. The source says: The results are summarized in Tables S3–S5, Supplementary Information.
Table S5: NCI 60 cell line mean screening results for selected compounds NCI Ref. Compound GI50 TGI LC50 […]
a GI50 and LC50 are the mean concentrations required to inhibit the growth and kill 50 % of the cells over the total NCI 60 cell line panel in the assay respectively. […]
over the total NCI 60 cell line panel.

Another assay concerns MALME-3M. Put plainly: NCI60 screen (SRB), Melanoma. Type of assay: cell-based. The note with it: Homo sapiens; NCI60 Melanoma cell line MALME-3M; read-out: GI50.
The subject of the next assay is SN12C. Put plainly: NCI60 screen (SRB), Renal cancer. Type of assay: cell-based. The note with it: Homo sapiens; NCI60 Renal cancer cell line SN12C; read-out: GI50.
In the next assay the test system is SNB-19. Put plainly: NCI60 screen (SRB), CNS Cancer. Type of assay: cell-based. The note with it: Homo sapiens; NCI60 CNS Cancer cell line SNB-19; read-out: GI50.
A further assay has as its system MDA-MB-231/ATCC. In words: NCI60 screen (SRB), Breast cancer. The format is cell-based, human. The note with it: Homo sapiens; NCI60 Breast cancer cell line MDA-MB-231/ATCC; read-out: GI50.
Another assay relates to OVCAR-8. In words: NCI60 screen (SRB), Ovarian cancer. Type of assay: cell-based. As to conditions: Homo sapiens; NCI60 Ovarian cancer cell line OVCAR-8; read-out: GI50.
A further assay concerns OVCAR-4. In words: NCI60 screen (SRB), Ovarian cancer. Type of assay: cell-based. The note with it: Homo sapiens; NCI60 Ovarian cancer cell line OVCAR-4; read-out: GI50.
The next assay deals with TK-10. In words: NCI60 screen (SRB), Renal cancer. The format is cell-based. The note with it: Homo sapiens; NCI60 Renal cancer cell line TK-10; read-out: GI50.
Another assay concerns BT-549. Put plainly: NCI60 screen (SRB), Breast cancer. Type of assay: cell-based. The note with it: Homo sapiens; NCI60 Breast cancer cell line BT-549; read-out: GI50.
In another assay the test system is PC-3. In words: NCI60 screen (SRB), Prostate cancer. The format is cell-based. As to conditions: Homo sapiens; NCI60 Prostate cancer cell line PC-3; read-out: GI50.
Another assay concerns SK-MEL-5. Put plainly: NCI60 screen (SRB), Melanoma. The format is cell-based. As to conditions: Homo sapiens; NCI60 Melanoma cell line SK-MEL-5; read-out: GI50.
The next assay deals with IGROV1. Put plainly: NCI60 screen (SRB), Ovarian cancer. Type of assay: cell-based. The note with it: Homo sapiens, IGROV-1; NCI60 Ovarian cancer cell line IGROV1; read-out: GI50.
The next assay concerns HCT-116. Put plainly: NCI60 screen (SRB), Colon Cancer. Type of assay: cell-based. As to conditions: Homo sapiens; NCI60 Colon Cancer cell line HCT-116; read-out: GI50.

Like-named read-outs stand apart in the source and are kept apart here.

In general, GI50 refers to the concentration at which growth is held to half of that of the control. The term IC50 denotes the midpoint of a concentration-inhibition curve.

Consider `CCC1C(=O)N(c2cc(OC)c(OC)c(OC)c2)C1c1ccc(OC)c(OP(=O)(O)O)c1` (centres unmarked) [Compound 17c, 5-(3-Ethyl-1-(3,4,5-trimethoxyphenyl)-4-oxoazetidin-2-yl)-2-methoxyphenyl dihydrogen phosphate], for which the GI50 came to 35 nM in the assay on K-562; 36.8 nM in the assay on OVCAR-3; 29.6 nM with HCT-15; 138 nM with NCI 60 cell line panel (mean over the total NCI 60 cell line panel, read-out: GI50 (mean)); 73 nM with NCI 60 cell line panel (over the full 60 cell line panel, read-out: mean GI50); 71400 nM with MALME-3M. Moreover, the GI50 in the assay with SN12C is 54.8 nM; in the assay on SNB-19 it was 63.9 nM; with MDA-MB-231/ATCC, 31 nM; with OVCAR-8 it was 32.7 nM; with OVCAR-4, 168 nM; with TK-10 it was 73.6 nM. Moreover, the GI50 came out at 33.8 nM in the assay with BT-549; 34.9 nM in the assay on PC-3; 19 nM in the assay on SK-MEL-5; 37.6 nM with IGROV1; 35 nM in the assay on HCT-116. For the same compound, the IC50 in assay [1] is 21 ± 1.5 nM. In addition, the “TGI (mean)” value in the assay on NCI 60 cell line panel (mean over the total NCI 60 cell line panel) was 43650 nM. For the same compound, the CC50 in the assay with NCI 60 cell line panel (mean over the total NCI 60 cell line panel, read-out: LC50 (mean)) was 85100 nM.

For the origin of these results see publication PMC6630832, “3-Vinylazetidin-2-Ones: Synthesis, Antiproliferative and Tubulin Destabilizing Activity in MCF-7 and MDA-MB-231 Breast Cancer Cells” (Pharmaceuticals, 2019).
